Read-outs that look alike come from different tables or passages of the source.
Legend:
[1] = test system: U937 human histiocytic lymphoma cells; assay: U937 Mitotic Block Reversibility Assay; format: cell-based
[2] = test system: LOX human melanoma tumor xenograft; assay: LOX melanoma xenograft growth inhibition assay; format: in vivo, mouse; conditions: FIG. 3
Method: FIG. 3 is a graph showing the average tumor volume in microliters as a function of time (days) in a LOX melanoma xenograft growth inhibition assay. […] Paclitaxel and a vehicle control were used.
Many of the individually disclosed drugs were tested for in vitro and in vivo activity (see Table 1, below). Screening methods included a standard in vitro cell growth inhibition assay using DLD-1 human colon cancer cells (ATCC accession number CCL 221) in a 96-well microtiter plate format (Finlay, G. J. et al Analytical Biochemistry 139:272-277, 1984), a U937 (ATCC accession number CRL 1593) mitotic block reversibility assay (described below), and in some cases, a LOX human melanoma tumor xenograft in vivo growth inhibition assay (see Table 1). Chemical stability to esterase degradation was also examined.

[3] = test system: DLD-1 human colon cancer cells; assay: in vitro cell growth inhibition assay using DLD-1 cells; format: cell-based

Row | Structure (SMILES) | Complete Mitotic Block 0 hour [1] | Complete Mitotic Block 10 hour [1] | Reversibility Ratio [1] | minimum concentration required for complete mitotic block at 0 hour [1] | minimum concentration required for complete mitotic block at 10 hour [1] | reversibility ratio [1] | viability of cells at 5 days [1] | antitumor activity (average tumor volume over time) [2] | IC50 ([3]; Homo sapiens, DLD-1, read-out: DLD-1 mean IC50) | IC50 ([3]; read-out: DLD-1 mean IC50)
1 | C=C1CC2CCC34CC5OC6C(O3)C3OC(CCC3O[C@H]6C5O4)CC(=O)CC3C(CC4OC(CCC1O2)CC(C)C4=C)OC(CC(O)CN)C3OC (some centres unmarked) [Compound B1939] | 12 nM | 12 nM | 1.0 | 10 nM | 10 nM | 1 | drops to very low levels | antitumor activity | 19.3 nM | –
2 | C=C1CC2CCC34CC5OC6C(OC7CCC(CC(=O)CC8C(CC9OC(CCC1O2)CC(C)C9=C)OC(CC(O)CNCc1ccccc1)C8OC)OC7C6O3)C5O4 (centres unmarked) [Compound B2491] | 2 nM | 10 nM | 6.7 | – | – | – | – | – | – | 0.92 nM
3 | C=C1CC2CCC34CC5OC6C(OC7CCC(CC(=O)CC8C(CC9OC(CCC1O2)CC(C)C9=C)OC(CC(O)CN1CCCCC1)C8OC)OC7C6O3)C5O4 (centres unmarked) [ER803834] | 1 nM | 10 nM | 10.0 | – | – | – | – | – | – | 0.47 nM
4 | C=C1CC2CCC34CC5OC6C(OC7CCC(CC(=O)CC8C(CC9OC(CCC1O2)CC(C)C9=C)OC(CC(O)CN1CCCC1)C8OC)OC7C6O3)C5O4 (centres unmarked) [ER803835] | 10 nM | 10 nM | 1.0 | – | – | – | – | – | – | 15.3 nM
5 | C=C1CC2CCC34CC5OC6C(OC7CCC(CC(=O)CC8C(CC9OC(CCC1O2)CC(C)C9=C)OC(CC(O)CN1CC[C@@H](O)C1)C8OC)OC7C6O3)C5O4 (some centres unmarked) [ER803836] | 3 nM | 10 nM | 3.3 | – | – | – | – | – | – | 1.97 nM
6 | C=C1CC2CCC34CC5OC6C(OC7CCC(CC(=O)CC8C(CC9OC(CCC1O2)CC(C)C9=C)OC(CC(O)CN1CCCCCC1)C8OC)OC7C6O3)C5O4 (centres unmarked) [ER803843] | 1 nM | 10 nM | 10.0 | – | – | – | – | – | – | 0.49 nM
7 | C=C1CC2CCC34CC5OC6C(OC7CCC(CC(=O)CC8C(CC9OC(CCC1O2)CC(C)C9=C)OC(CC(O)CNCc1ccc(OC)cc1)C8OC)OC7C6O3)C5O4 (centres unmarked) [ER803845] | 3 nM | 10 nM | 3.3 | – | – | – | – | – | – | 1.5 nM
8 | C=C1CC2CCC34CC5OC6C(OC7CCC(CC(=O)CC8C(CC9OC(CCC1O2)CC(C)C9=C)OC(CC(O)CNCCc1ccccc1)C8OC)OC7C6O3)C5O4 (centres unmarked) [ER803846] | 1 nM | 10 nM | 10.0 | – | – | – | – | – | – | 1.16 nM
9 | C=C1CC2CCC34CC5OC6C(OC7CCC(CC(=O)CC8C(CC9OC(CCC1O2)CC(C)C9=C)OC(CC(O)CN1CCC[C@H]1CO)C8OC)OC7C6O3)C5O4 (some centres unmarked) [ER803851] | 3 nM | 3 nM | 1.0 | – | – | – | – | – | – | 3.33 nM
10 | C=C1CC2CCC34CC5OC6C(OC7CCC(CC(=O)CC8C(CC9OC(CCC1O2)CC(C)C9=C)OC(CC(O)CN1CCC[C@@H]1CO)C8OC)OC7C6O3)C5O4 (some centres unmarked) [ER803852] | 3 nM | 10 nM | 3.3 | – | – | – | – | – | – | 3.03 nM
11 | C=C1CC2CCC34CC5OC6C(OC7CCC(CC(=O)CC8C(CC9OC(CCC1O2)CC(C)C9=C)OC(CC(O)CN1CCOCC1)C8OC)OC7C6O3)C5O4 (centres unmarked) [ER803868] | 3 nM | 10 nM | 3.3 | – | – | – | – | – | – | 0.43 nM
12 | C=C1CC2CCC34CC5OC6C(OC7CCC(CC(=O)CC8C(CC9OC(CCC1O2)CC(C)C9=C)OC(CC(O)CNCC)C8OC)OC7C6O3)C5O4 (centres unmarked) [ER803869] | 3 nM | 3 nM | 1.0 | – | – | – | – | – | – | 4.13 nM
13 | C=C1CC2CCC34CC5OC6C(OC7CCC(CC(=O)CC8C(CC9OC(CCC1O2)CC(C)C9=C)OC(CC(O)Cn1ccnc1)C8OC)OC7C6O3)C5O4 (centres unmarked) [ER803870] | 3 nM | 30 nM | 10.0 | – | – | – | – | – | – | 1.27 nM
14 | C=C1CC2CCC34CC5OC6C(OC7CCC(CC(=O)CC8C(CC9OC(CCC1O2)CC(C)C9=C)OC(CC(O)CN(CC)CC)C8OC)OC7C6O3)C5O4 (centres unmarked) [ER803883] | 1 nM | 10 nM | 10.0 | – | – | – | – | – | – | 1.02 nM
15 | C=C1CC2CCC34CC5OC6C(OC7CCC(CC(=O)CC8C(CC9OC(CCC1O2)CC(C)C9=C)OC(CC(O)CNCc1ccc(Cl)cc1)C8OC)OC7C6O3)C5O4 (centres unmarked) [ER803884] | 1 nM | 10 nM | 10.0 | – | – | – | – | – | – | 0.59 nM

— patent US6365759B1, “Intermediate compounds for preparing macrocylcic analogs” (Eisai Co., Ltd., priority 1998, dated 2002)
